{"source": "patent US8592425B2", "about": "“Imidazo[1,2-a]pyridines and imidazo[1,2-b]pyridazines as mark inhibitors” (Merck Sharp & Dohme Corp., priority 2009, dated 2013)", "note": "Where a name gives a salt, the structure may show the parent alone."}
{"tested_on": "phosphorylation of Tau at S262 in primary cell culture of rat cortical neurons induced by Okadaic acid", "experiment": "pTau(S262) Cell Biochemical and Functional Assay", "assay_type": "cell-based", "conditions": "Cortical neurone, Okadaic acid 200 nM, 1.5 hrs, read-out: IC50, inhibition of phosphorylation of Tau at S262", "description": "The cell biochemical potency of the below described MARK inhibitors was evaluated by measuring their ability to block the phosphorylation of Tau at S262 in primary cell culture of rat cortical neurons induced by the action of Okadaic acid.\n• 1. Store tissue at 4° C. (1-2 days) until ready to use. • 2. When ready to plate, make up 2 mL of enzymatic solution in Hibernate-Ca containing 1× papain. Filter sterile solution with 0.2 μm filter. • 3. Transfer 2 mL of medium from tissue tube into 15 mL falcon tube while not disturbing tissue. Save media. • 4. Add 2 mL enzymatic media (2) to tissue. Incubate for 30′ at 37° C. • 5. Remove enzymatic solution while not disturbing tissue. Add back 1 mL of media from (3). • 6. Using pipettor with sterile plastic tip, triturate ˜10 times until most of the cells are dispersed. • 7. Let undispersed pieces settle by gravity 1 minute. • 8. Transfer dispersed cells (supernatant) into 15 mL falcon tube containing 1 mL media from (3). Gently mix cells by swirling. • 9. Spin cells at 1,100 rpm for 1 minute. Remove supernatant. • 10. Flick tube to loosen cell pellet. Resuspend cells in 5 mL of NB. • 11. Transfer to new 50 mL falcon tube using 40 μm cell strainer. Rinse 15 mL falcon tube with 5 mL media, add to strainer. • 12. Count cells using hemacytometer. • 13. Dilute cells to 7,000 cells/100 μL/well in NB. • 14. Incubate cells at 37° C. with 5% CO2. • a. 4 DIV: Replace ½ volume (50 μL) NB per well. • b. 6 DIV: Neurite Assay. Tissue Culture/Compound Treatment\nPrimary rat cortical neurons plated @ 6Kcells/well in 384-well black/clear bottom Poly D-Lysine coated BD Falcon Biocoat plates. • Media: Neurobasal+1× B27+2 mM L-Glutamine (+10% FBS) at time of plating\nCells maintained at 37° C. and 5% CO2 for *6 days in culture, w/½ media change every 3-4 days.\nCompound treatment: • Prepare first plate: 200× compound in 100% DMSO with subsequent 3 fold serial dilution • Prepare intermediate plate: 1:40 dilution of 200× compound in media (2.5% DMSO) • Add 5× compound to cell in media at 1:5 dilution (0.5% final DMSO) • Incubate for 30 min. at 37° C.\nOkadaic Acid (OA) Treatment: • Dilute OA stock (240 μM in 100% DMSO) to 6× final concentration in media (0.5% DMSO) • Add 6× OA to cells at 1:6 dilution (200 nM final). Incubate for 1.5 hrs. at 37° C. Fix and Immunostaining\nFix: 1% PFA, diluted in PBS • Wash 1× with PBS, residual 30 μl/well.\nAdd 30 μL/well warmed 2% PFA and incubate 30 min. at RT (1% PFA final)\nWash 3× with PBS, 300/well residual […]", "units": {"IC50": "nM"}}
{"molecule": "Cc1sc(C(=O)N[C@H]2CCS(=O)(=O)C[C@H]2N)cc1-c1cnc2cccnn12", "note": "(relative stereo) [Example 10, N-[cis-3-amino-1,1-dioxidotetrahydro-2H-thiopyran-4-yl]-4-(imidazo[1,2-b]pyridazin-3-yl)-5-methylthiophene-2-carboxamide]", "IC50": "> 10000"}
{"molecule": "Cc1sc(C(=O)NC2CS(=O)(=O)CC[C@H]2N)cc1-c1cnc2cccnn12", "note": "(stereo partly drawn) [Example 9]", "IC50": "> 10000"}
{"molecule": "Cc1sc(C(=O)N[C@@H]2[C@H](N)CCCC2(F)F)cc1-c1cnc2ccccn12", "note": "[Example 15, N-[(1R,6R)-6-amino-2,2-difluorocyclohexyl]-4-(imidazo[1,2-a]pyridin-3-yl)-5-methylthiophene-2-carboxamide]", "IC50": "> 10000"}
{"molecule": "N[C@@H]1CCCC(F)(F)[C@@H]1NC(=O)c1cc(-c2cnc3cccnn23)c(Cc2ccccc2)s1", "note": "[Example 19, N-[(1R,6R)-6-amino-2,2-difluorocyclohexyl]-5-benzyl-4-(imidazo[1,2-b]pyridazin-3-yl)thiophene-2-carboxamide]", "IC50": "> 10000"}
{"target": "recombinant MARK3 enzyme (Homo sapiens (Human), UniProt P27448)", "sequence (P27448 whole entry, species assumed)": "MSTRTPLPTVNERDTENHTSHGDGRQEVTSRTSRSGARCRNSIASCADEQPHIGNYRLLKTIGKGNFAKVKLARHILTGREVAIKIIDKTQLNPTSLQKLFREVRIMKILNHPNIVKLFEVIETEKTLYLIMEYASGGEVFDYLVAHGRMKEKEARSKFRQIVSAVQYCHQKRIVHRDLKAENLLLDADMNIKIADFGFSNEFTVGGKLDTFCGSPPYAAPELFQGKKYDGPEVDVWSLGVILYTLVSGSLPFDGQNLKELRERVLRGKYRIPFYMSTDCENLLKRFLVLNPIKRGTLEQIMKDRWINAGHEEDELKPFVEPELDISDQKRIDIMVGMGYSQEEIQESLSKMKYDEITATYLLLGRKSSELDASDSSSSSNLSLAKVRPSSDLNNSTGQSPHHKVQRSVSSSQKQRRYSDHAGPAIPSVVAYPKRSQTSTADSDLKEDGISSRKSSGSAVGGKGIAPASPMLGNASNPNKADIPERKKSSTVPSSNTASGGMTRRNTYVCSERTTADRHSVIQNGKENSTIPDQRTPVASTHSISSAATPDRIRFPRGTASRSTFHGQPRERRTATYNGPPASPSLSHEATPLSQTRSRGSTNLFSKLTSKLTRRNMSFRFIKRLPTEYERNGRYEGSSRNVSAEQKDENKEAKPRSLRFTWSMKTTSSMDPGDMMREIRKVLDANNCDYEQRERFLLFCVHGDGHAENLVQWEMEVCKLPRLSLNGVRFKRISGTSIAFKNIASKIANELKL", "experiment": "MARK 3 Assay (HTRF, Cdc25C biotinylated peptide substrate)", "assay_type": "biochemical", "conditions": "MARK3, 10 μM ATP, 1 μM peptide substrate, 2 hours at 25° C.", "description": "MARK3 activity was assayed in vitro using a Cdc25C biotinylated peptide substrate (Cell Signalling Technologies). The phosphopeptide product was quantitated using a Homogenous Time-Resolved Fluorescence (HTRF) assay system (Park et al., 1999, Anal. Biochem. 269:94-104). The reaction mixture contained 50 mM HEPES/Tris-HCl, pH 7.4; […], 5 mM MgCl2, 0.2 mM NaVO4, 5 mM 3-glycerol phosphate, 0.1% Tween-20, 2 mM dithiothreitol, 0.1% BSA, 10 μM ATP, 1 μM peptide substrate, and 10 nM recombinant MARK3 enzyme (University of Dundee) in a final volume of 12 μL. The buffer additionally contained protease inhibitor cocktail (Roche EDTA-free, 1 tab per 50 ml). The kinase reaction was incubated for 2 hours at 25° C., and then terminated with 3 μl Stop/Detection Buffer (50 mM HEPES, pH 7.0, 16.6 mM EDTA, 0.5M KF, 0.1% Tween-20, 0.1% BSA, 2 μg/ml SLX^ent 665 (CISBIO), and 2 μg/mL Eu^3+ cryptate label antibody (CISBIO)). The reaction was allowed to equilibrate overnight at 0° C., and relative fluorescent units were read on an HTRF enabled plate reader (e.g. TECAN GENios Pro).\nInhibitor compounds were assayed in the reaction described above to determine compound IC50s. Aliquots of compound dissolved in DMSO were added to the reaction wells in a third-log dilution series covering a range of 1 nM to 10 μM. Relative phospho substrate formation, read as HTRF fluorescence units, was measured over the range of compound concentrations and a titration curve generated.", "units": {"IC50": "nM"}}
{"molecule": "Cc1sc(C(=O)N[C@@H]2[C@H](N)CCCC2(F)F)cc1-c1cnc2cccnn12", "note": "[Example 1, N-[(1R,6R)-6-Amino-2,2-difluorocyclohexyl]-4-(imidazo[1,2-b]pyridazin-3-yl)-5-methylthiophene-2-carboxamide]", "IC50": 20}
{"molecule": "N[C@@H]1CCCC(F)(F)[C@@H]1NC(=O)c1cc(-c2cnc3cc(-c4ccc(F)cc4)cnn23)cs1", "note": "[Example 8, (1R,2R)-3,3-difluoro-2-[({4-[7-(4-fluorophenyl)imidazo[1,2-b]pyridazin-3-yl]thiophen-2-yl}carbonyl)amino]cyclohex-anaminium trifluoroacetate]", "IC50": 0.5}
{"molecule": "N[C@H]1CCCC(F)(F)[C@@H]1NC(=O)c1cc(-c2cnc3ccccn23)cs1", "note": "[Example 14, N-[(1R,6S)-6-amino-2,2-difluorocyclohexyl]-4-(imidazo[1,2-a]pyridin-3-yl)thiophene-2-carboxamide]", "IC50": 15}
{"molecule": "CCc1sc(C(=O)N[C@@H]2[C@H](N)CCCC2(F)F)cc1-c1cnc2cc(C(F)(F)F)cnn12", "note": "[Example 24, N-[(1R,6R)-6-amino-2,2-difluorocyclohexyl]-5-ethyl-4-[7-(trifluoromethyl)imidazo[1,2-b]pyridazin-3-yl]thiophene-2-carboxamide]", "IC50": 140}
{"molecule": "N[C@H]1CCCC(F)(F)[C@@H]1NC(=O)c1nc(-c2cnc3ccccn23)c(Cl)s1", "note": "[Example 29, N-[(1R,6S)-6-Amino-2,2-difluorocyclohexyl]-5-chloro-4-(imidazo[1,2-a]pyridin-3-yl)-1,3-thiazole-2-carboxamide]", "IC50": 720}
